Patent publication US20250041323A1, “BDNF PRODUCTION PROMOTER” (YAMASA CORPORATION, priority 2022, published 2025)

Columns and labels:
[1] = system: BDNF mRNA in C2C12 cell-derived myotube cells; test: BDNF gene expression promoting effect-1: BDNF mRNA by real-time PCR in C2C12 cell-derived myotube cells; assay type: cell-based, mouse; details: 1 mM, 4 hours, corrected to β-actin mRNA, vs control without test substance, Dunnett's test, n=3
Method: Mouse myoblast cell line C2C12 cells (RIKEN BRC, RCB0987) were suspended in a growth medium (DMEM containing 10% FBS and antibiotics), seeded in a 24-well plate, and cultured in an incubator at 37° C. and 5% CO2 until the cell density reached 70-90%. The growth medium was removed and replaced with a differentiation induction medium (DMEM containing 2% horse serum and antibiotics). After culturing it for 6 days while changing the medium once every 2 days, cytidylic acid (CMP) or uridylic acid (UMP) was added to a final concentration of 1 mM and cultured for 4 hours. The medium was removed, and the total RNA was extracted from the cells using NucleoSpin® RNA (TAKARA BIO INC).
Using the total RNA as a template, a reverse transcription reaction solution was prepared using ReverTra Ace® qPCR RT Kit (TOYOBO). The reverse transcription reaction solution, GoTaq qPCR Master Mix (Promega), and a real-time PCR device Thermal Cycler Dice® Real Time System (TAKARA BIO INC) were used to measure amounts of mRNAs of BDNF and β-actin as an internal standard. Analysis was performed by relative quantification, and the amount of the mRNA was corrected using the amount of mRNA of β-actin as an endogenous control.
The threshold of statistical significance was set at 5%. In addition, unless otherwise specified, including the following Examples, each sample was examined at n=3.

[2] = system: BDNF mRNA in PC-12 cells; test: BDNF gene expression promoting effect-3: BDNF mRNA by real-time PCR in PC-12 cells (uridine); assay type: cell-based, rat; details: 200 μM, 1 hour, n=3
Method: PC-12 cells were suspended in DMEM containing 5% FBS (fetal bovine serum), 10% horse serum, and antibiotics (100 units/ml of penicillin, 100 μg/ml of streptomycin), seeded on a collagen-coated 24-well plate at a density of 2.4×10^5 cells/well, and cultured in an incubator at 37° C. and 5% CO2 for 18 hours. Uridine, a precursor of uridylic acid, was added to a final concentration of 200 μM, and cultured for 1 hour. Subsequently, mRNA was extracted, and the amount of mRNA of BDNF was evaluated by reverse transcription and real-time PCR analysis in the same procedure as that of Example 1.

[3] = system: BDNF protein in PC-12 cells; test: BDNF protein by Rat BDNF ELISA in PC-12 cell lysate; assay type: cell-based; details: 200 µM, 24 hours, t-test vs control, n=3
Method: PC-12 cells were suspended in DMEM containing 20% FBS and antibiotics, seeded on a collagen-coated 24-well plate at a density of 2.4×10^5 cells/well, and cultured in an incubator at 37° C. and 5% CO2 for 18 hours. Uridine was added to a final concentration of 200 µM, and cultured for 24 hours. The medium was removed by suction, and 100 μl of RIPA buffer (50 mM Tris-HCl (pH 7.6), 150 mM NaCl, 1% NP-40, 0.5% sodium deoxycholate, 1% SDS) containing 1% protease inhibitor cocktail (nacalai tesque) was added, and the cells were disrupted by pipetting and ultrasonication. The amount of BDNF in the cell lysate was measured using a Rat BDNF ELISA Kit (RayBiotech). The amount of protein in the cell lysate was measured using a Micro BCA™ Protein Assay Kit (Thermo Fisher Scientific), and the amount of BDNF per total protein mass was calculated. […] The threshold for statistical significance was set at 5%.

[4] = system: BDNF mRNA in PC-12 cells; test: BDNF gene expression promoting effect-2: BDNF mRNA by real-time PCR in PC-12 cells (uridylic acid); assay type: cell-based, rat; details: 500 µM, 4 hours, n=3
Method: Rat adrenal medulla brown tumor-derived cells (PC-12 cells, JCRB0733), used as nervous system model cells, were suspended in DMEM containing 20% FBS and antibiotics, seeded on a collagen-coated 24-well plate at a density of 2.4×10^5 cells/well, and cultured in an incubator at 37° C. and 5% CO2 for 18 hours. Uridylic acid (UMP) was added to a final concentration of 500 µM, and cultured for 4 hours.
Subsequently, mRNA was extracted and an amount of mRNA of BDNF was evaluated by reverse transcription and real-time PCR analysis in the same procedure as that of Example 1.

| Structure (SMILES) | amount of mRNA of BDNF [1] | amount of mRNA of BDNF [2] | amount of BDNF per total protein mass [3] | amount of mRNA of BDNF [4] |
| --- | --- | --- | --- | --- |
| Nc1ccn([C@@H]2O[C@H](COP(=O)(O)O)[C@@H](O)[C@H]2O)c(=O)n1 [cytidylic acid] | significantly increased |  |  |  |
| O=c1ccn([C@@H]2O[C@H](CO)[C@@H](O)[C@H]2O)c(=O)[nH]1 [uridine] |  | significantly increased | significantly increased |  |
| O=c1ccn([C@@H]2O[C@H](COP(=O)(O)O)[C@@H](O)[C@H]2O)c(=O)[nH]1 [uridylic acid] | significantly increased |  |  | significantly increased |
